Columns and labels:
[1] = target: T1, Serine/threonine-protein kinase BRSK1 (Homo sapiens) (UniProt Q8TDC3); assay: Inhibition of BRSK1 (unknown origin) assessed as residual activity at 100 nM by KINOMEscan analysis relative to control
T1 sequence (whole entry): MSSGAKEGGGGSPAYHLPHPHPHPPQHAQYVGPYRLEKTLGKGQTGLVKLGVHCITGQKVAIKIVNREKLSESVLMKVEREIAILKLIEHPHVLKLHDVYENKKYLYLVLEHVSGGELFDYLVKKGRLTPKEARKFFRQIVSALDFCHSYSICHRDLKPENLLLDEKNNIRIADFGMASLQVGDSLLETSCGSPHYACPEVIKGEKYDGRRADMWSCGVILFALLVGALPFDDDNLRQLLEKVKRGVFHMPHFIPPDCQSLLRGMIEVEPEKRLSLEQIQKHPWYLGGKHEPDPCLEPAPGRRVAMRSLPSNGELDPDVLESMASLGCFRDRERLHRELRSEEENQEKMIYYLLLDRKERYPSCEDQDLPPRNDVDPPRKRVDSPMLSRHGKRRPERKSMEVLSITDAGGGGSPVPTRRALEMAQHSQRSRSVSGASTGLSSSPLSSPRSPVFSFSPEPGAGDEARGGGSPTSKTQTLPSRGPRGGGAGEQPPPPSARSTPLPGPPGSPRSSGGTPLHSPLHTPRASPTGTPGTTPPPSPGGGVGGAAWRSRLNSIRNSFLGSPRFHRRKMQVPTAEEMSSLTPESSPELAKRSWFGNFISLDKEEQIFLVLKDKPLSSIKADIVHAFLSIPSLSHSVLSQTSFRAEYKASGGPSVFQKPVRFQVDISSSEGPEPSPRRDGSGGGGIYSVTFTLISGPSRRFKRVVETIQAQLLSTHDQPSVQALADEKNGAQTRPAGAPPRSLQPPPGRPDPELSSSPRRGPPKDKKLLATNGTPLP

[2] = target: Fibroblast growth factor receptor 4 (Homo sapiens) (UniProt P22455); assay: Inhibition of FGFR4 (unknown origin) assessed as residual activity at 100 nM by KINOMEscan analysis relative to control
Fibroblast growth factor receptor 4 (Homo sapiens), sequence (P22455 22-802 limits assumed): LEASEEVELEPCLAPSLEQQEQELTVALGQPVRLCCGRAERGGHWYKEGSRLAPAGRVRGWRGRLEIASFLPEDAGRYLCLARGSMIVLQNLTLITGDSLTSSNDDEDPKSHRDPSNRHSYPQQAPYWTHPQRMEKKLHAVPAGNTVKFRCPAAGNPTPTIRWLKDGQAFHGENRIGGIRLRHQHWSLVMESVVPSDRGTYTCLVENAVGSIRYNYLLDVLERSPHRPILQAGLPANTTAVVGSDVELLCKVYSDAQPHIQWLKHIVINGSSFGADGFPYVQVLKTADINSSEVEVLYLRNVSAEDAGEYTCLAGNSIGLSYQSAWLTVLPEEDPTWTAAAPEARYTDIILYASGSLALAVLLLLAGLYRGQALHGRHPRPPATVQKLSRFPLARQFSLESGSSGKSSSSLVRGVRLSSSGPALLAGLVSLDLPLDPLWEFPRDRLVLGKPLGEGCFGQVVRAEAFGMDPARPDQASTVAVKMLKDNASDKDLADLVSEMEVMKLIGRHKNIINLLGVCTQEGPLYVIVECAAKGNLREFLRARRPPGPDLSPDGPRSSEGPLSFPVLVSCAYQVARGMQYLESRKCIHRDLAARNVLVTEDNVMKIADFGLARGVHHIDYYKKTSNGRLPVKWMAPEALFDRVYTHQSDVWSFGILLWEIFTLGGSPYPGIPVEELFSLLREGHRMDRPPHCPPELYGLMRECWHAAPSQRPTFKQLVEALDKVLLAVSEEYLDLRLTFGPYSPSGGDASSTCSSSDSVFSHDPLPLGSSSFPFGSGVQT

[3] = target: T2, Tyrosine-protein kinase receptor TYRO3 (Homo sapiens) (UniProt Q06418); assay: Inhibition of TYRO3 (unknown origin) assessed as residual activity at 100 nM by KINOMEscan analysis relative to control
T2 sequence (whole entry): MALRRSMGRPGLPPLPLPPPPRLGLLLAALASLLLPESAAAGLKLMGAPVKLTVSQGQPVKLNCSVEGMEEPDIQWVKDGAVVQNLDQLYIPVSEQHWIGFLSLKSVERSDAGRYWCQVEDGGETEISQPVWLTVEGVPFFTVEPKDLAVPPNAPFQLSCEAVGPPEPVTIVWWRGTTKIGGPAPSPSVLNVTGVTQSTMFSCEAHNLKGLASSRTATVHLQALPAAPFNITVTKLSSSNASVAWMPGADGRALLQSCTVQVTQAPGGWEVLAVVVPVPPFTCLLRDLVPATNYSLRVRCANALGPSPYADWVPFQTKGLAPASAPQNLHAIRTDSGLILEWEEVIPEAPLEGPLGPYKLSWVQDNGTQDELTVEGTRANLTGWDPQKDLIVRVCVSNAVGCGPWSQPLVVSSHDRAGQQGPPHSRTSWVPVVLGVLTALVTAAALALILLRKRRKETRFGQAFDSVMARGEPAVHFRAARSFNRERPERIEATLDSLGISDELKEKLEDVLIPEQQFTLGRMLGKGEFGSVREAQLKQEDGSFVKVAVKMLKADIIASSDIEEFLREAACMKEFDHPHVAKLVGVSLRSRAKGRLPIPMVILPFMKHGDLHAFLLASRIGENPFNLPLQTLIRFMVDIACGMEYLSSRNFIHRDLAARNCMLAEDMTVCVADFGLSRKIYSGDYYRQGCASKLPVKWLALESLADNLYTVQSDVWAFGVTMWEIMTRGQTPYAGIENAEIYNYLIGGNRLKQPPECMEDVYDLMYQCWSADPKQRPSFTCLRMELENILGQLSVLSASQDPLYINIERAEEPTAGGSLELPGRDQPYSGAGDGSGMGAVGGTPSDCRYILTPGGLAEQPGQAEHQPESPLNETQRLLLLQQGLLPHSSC

[4] = target: Serine/threonine-protein kinase SIK3 (Homo sapiens) (UniProt Q9Y2K2); assay: Inhibition of QSK (unknown origin) assessed as residual activity at 100 nM by KINOMEscan analysis relative to control
Serine/threonine-protein kinase SIK3 (Homo sapiens), sequence (Q9Y2K2 whole entry, looked up): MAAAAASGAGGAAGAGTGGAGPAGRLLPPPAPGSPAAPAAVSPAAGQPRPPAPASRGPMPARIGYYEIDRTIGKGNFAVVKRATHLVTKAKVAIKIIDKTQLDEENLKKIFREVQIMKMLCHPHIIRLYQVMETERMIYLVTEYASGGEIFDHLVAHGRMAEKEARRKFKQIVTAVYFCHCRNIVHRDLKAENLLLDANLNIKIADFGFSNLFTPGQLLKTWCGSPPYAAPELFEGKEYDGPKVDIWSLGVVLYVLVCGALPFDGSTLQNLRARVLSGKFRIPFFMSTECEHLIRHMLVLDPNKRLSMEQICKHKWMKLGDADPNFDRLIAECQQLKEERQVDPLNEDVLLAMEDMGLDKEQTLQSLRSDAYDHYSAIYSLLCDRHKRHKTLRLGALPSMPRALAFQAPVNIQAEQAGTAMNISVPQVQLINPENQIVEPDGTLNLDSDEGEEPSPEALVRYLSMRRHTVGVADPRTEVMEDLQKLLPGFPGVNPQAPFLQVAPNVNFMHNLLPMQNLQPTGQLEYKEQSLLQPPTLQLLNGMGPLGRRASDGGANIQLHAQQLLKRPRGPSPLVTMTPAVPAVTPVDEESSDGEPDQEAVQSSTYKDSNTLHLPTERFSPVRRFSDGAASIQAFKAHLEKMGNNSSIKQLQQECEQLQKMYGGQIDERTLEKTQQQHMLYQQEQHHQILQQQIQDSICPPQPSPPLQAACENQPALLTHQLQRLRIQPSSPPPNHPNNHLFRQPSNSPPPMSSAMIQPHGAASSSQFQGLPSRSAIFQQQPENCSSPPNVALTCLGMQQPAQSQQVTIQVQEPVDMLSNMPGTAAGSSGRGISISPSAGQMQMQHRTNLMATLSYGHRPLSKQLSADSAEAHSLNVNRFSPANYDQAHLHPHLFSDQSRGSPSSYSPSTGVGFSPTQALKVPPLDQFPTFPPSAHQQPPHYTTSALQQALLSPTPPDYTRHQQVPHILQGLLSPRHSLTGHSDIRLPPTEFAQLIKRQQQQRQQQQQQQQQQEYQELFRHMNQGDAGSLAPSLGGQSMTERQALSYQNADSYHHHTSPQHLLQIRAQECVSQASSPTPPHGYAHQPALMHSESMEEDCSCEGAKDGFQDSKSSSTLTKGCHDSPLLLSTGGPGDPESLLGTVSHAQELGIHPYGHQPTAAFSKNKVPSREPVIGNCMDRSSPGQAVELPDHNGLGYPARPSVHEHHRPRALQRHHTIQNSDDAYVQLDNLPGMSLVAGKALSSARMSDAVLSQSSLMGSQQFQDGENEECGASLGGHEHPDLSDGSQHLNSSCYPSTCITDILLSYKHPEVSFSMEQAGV

[5] = target: Serine/threonine-protein kinase 33 (Homo sapiens) (UniProt Q9BYT3); assay: Inhibition of STK33 (unknown origin) assessed as residual activity at 100 nM by KINOMEscan analysis relative to control
Serine/threonine-protein kinase 33 (Homo sapiens), sequence (Q9BYT3 whole entry, looked up, the tested form may be a part): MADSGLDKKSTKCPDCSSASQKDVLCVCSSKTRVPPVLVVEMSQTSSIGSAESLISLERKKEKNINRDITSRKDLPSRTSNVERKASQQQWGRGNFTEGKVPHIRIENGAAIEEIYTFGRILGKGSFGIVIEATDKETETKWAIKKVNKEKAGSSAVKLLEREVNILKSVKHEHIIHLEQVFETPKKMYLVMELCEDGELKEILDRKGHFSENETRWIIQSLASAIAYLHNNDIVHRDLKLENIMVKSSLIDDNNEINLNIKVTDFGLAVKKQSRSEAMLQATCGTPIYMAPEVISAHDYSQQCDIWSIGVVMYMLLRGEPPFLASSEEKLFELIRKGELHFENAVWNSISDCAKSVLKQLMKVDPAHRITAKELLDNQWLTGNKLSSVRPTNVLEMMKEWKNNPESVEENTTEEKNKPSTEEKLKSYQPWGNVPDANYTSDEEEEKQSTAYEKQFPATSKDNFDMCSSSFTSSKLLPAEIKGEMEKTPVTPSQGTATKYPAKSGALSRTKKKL

[6] = target: T3, Ankyrin repeat and protein kinase domain-containing protein 1 (Homo sapiens) (UniProt Q8NFD2); assay: Inhibition of ANKK1 (unknown origin) assessed as residual activity at 100 nM by KINOMEscan analysis relative to control
T3 sequence (whole entry): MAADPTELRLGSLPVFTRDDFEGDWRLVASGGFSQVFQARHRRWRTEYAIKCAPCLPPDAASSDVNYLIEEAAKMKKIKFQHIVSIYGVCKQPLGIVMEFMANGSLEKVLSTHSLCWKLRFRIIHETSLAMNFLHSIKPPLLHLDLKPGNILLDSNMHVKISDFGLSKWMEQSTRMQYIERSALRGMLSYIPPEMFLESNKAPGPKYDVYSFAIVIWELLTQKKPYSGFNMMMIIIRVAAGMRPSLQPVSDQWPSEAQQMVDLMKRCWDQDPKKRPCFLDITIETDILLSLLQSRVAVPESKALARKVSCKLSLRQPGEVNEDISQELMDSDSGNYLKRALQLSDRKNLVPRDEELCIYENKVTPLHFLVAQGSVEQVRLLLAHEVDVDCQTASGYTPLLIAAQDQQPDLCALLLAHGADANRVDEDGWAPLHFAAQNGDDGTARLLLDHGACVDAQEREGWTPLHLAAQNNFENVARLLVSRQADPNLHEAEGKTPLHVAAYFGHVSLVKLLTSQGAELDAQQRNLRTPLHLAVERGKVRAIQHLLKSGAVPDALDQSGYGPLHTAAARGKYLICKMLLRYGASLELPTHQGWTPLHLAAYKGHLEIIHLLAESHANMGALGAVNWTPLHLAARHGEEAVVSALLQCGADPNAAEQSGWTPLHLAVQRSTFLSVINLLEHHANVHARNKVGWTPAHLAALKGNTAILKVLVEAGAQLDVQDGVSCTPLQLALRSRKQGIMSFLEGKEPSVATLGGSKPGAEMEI

[7] = target: Calcium/calmodulin-dependent protein kinase type 1D (Homo sapiens) (UniProt Q8IU85); assay: Inhibition of CAMK1D (unknown origin) assessed as residual activity at 100 nM by KINOMEscan analysis relative to control
Calcium/calmodulin-dependent protein kinase type 1D (Homo sapiens), sequence (Q8IU85 whole entry, looked up): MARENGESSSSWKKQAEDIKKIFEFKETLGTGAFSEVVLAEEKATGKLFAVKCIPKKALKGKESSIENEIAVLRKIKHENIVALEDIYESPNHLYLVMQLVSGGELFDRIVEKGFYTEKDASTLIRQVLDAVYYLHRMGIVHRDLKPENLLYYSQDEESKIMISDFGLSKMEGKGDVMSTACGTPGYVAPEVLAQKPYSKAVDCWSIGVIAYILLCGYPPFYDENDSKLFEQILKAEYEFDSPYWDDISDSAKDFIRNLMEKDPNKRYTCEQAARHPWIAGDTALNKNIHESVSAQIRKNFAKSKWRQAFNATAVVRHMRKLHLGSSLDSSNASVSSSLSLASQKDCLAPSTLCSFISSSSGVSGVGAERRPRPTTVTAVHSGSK

[8] = target: Proto-oncogene tyrosine-protein kinase receptor Ret (Homo sapiens) (UniProt P07949); assay: Inhibition of RET (unknown origin) assessed as residual activity at 100 nM by KINOMEscan analysis relative to control
Proto-oncogene tyrosine-protein kinase receptor Ret (Homo sapiens), sequence (P07949 whole entry): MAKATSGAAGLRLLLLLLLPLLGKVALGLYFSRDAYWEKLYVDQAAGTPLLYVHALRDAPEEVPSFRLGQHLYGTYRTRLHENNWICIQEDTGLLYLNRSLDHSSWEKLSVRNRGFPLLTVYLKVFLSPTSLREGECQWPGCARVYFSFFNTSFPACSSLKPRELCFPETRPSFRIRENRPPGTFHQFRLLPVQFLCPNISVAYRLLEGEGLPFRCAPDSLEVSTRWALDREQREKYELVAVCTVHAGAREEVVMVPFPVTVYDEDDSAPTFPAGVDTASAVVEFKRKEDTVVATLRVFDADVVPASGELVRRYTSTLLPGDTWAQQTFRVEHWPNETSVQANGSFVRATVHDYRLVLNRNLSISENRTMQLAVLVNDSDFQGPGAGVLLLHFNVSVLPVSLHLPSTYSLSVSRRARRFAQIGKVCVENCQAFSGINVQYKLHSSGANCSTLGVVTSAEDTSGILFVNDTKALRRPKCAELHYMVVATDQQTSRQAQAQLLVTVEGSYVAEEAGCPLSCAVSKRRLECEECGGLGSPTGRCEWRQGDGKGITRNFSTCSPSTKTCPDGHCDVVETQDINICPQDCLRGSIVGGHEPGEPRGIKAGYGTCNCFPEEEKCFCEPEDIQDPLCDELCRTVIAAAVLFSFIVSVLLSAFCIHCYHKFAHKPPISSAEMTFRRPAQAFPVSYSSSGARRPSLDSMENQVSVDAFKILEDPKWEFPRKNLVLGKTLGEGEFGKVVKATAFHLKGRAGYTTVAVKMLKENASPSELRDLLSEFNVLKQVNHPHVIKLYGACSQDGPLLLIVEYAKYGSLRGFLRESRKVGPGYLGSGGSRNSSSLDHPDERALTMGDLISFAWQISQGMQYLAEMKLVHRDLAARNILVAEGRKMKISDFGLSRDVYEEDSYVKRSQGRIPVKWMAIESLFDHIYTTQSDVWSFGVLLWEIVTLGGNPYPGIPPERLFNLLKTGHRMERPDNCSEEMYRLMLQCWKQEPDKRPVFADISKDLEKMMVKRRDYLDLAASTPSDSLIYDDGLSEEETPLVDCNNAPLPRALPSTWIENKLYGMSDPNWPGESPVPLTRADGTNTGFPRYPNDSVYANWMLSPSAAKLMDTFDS

COc1cc2ncnc(N[C@H](C)c3cccc4ccccc34)c2cc1OC
Activity [1]: 100% | Activity [2]: 76% | Activity [3]: 76% | Activity [4]: 94% | Activity [5]: 70% | Activity [6]: 97% | Activity [7]: 88% | Activity [8]: 86%
